The experiment addresses c-Met kinase (histidine-tagged c-Met catalytic domain fusion protein) (Homo sapiens (Human), UniProt P08581). The experiment in a line: In Vitro c-Met Kinase Enzyme Assays. The experiment is classed as biochemical. The conditions noted are these: inhibition of c-Met kinase; phosphorylation of poly Glu-Tyr, 5 μM ATP, 25 minutes at 30° C. The protocol:
The compounds of the invention were screened in vitro for their ability to inhibit c-Met kinase activity. The IC50 values for the inhibition of c-Met kinase were determined as described in the literature with some modifications (Wang, X. et al, Mol. Cancer. Ther. 2003, 2(11):1085-1092; Calic, M. et al., Croatica Chemical ACTA. 2005, 78(3):367-374). Briefly, histidine-tagged c-Met catalytic domain fusion protein (Invitrogen, # PV3143) was used for the assay. IC50 measurements were based on the degree of phosphorylation of poly Glu-Tyr (Sigma-Aldrich, # PO275) that was coated (0.01 mg/per well) on 96-well microplates (R&D systems, # DY990). The reaction was carried out in a 50 μL solution containing 50 mM HEPES (pH 7.5), 10 mM MnCl2, 10 mM MgCl2, 0.5 mM DTT, 100 μM Na3VO4, 5 μM ATP (Cell Signaling Technology, #9804) and serial dilutions of the test compound. The reaction lasted for 25 minutes at 30° C. After the reaction was completed, the contents of the plates were discarded. Plates were then washed with TBS-T (250 μL/well, 5×) and then blocked with TBS-T containing 1% BSA for 2 hours. The contents of the plates was discarded, and 100 μL (per well) of peroxidase-labeled anti-phospho-tyrosine antibody (Sigma, # A5964) diluted (1:60,000) in 1% BSA containing TBS-T were then added and incubated for 1 hour. Plates were washed with TBS-T (250 μL/well, 5×) and followed by the color reaction using 100 μL (1:1 mixture) of H2O2 and tetramethylbenzidine (R&D Systems, # DY999). The reaction was stopped in minutes with […] of 2 N H2SO4. The optical density was measured immediately using a microplate reader at 450 nm with wavelength correction at 540 nm. IC50 values were calculated with the GraphPad Prism software. The linear range (i.e., the time period over which the rate remained equivalent to the initial rate) was determined for the kinase and IC50 determinations were performied within this range.
Sequence of c-Met kinase (histidine-tagged c-Met catalytic domain fusion protein) (P08581 1078-1345): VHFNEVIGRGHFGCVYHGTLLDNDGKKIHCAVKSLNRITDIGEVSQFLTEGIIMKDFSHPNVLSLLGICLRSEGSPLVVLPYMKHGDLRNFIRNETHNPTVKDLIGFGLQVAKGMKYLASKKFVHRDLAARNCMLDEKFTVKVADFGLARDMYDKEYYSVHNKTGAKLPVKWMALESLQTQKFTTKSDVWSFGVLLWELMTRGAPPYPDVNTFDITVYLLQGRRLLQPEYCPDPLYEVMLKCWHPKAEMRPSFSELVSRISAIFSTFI
`CNC(=O)c1ccc(-c2cnc3ncc(Cc4ccc5ncccc5c4)n3n2)cc1Cl` [Formula II, 2-chloro-N-methyl-4-(7-(quinolin-6-ylmethyl)imidazo[1,2-b][1,2,4]triazin-2-yl)benzamide]: the IC50 is 0.1 to 1 nM.
The result for `C[C@@H](O)CNC(=O)c1ccc(-c2cnc3ncc(Cc4ccc5ncccc5c4)n3n2)cc1F` [Formula I, 2-fluoro-N-[(2R)-2-hydroxypropyl]-4-[7-(quinolin-6-ylmethyl)imidazo[1,2-b][1,2,4]triazin-2-yl]benzamide] reads 0.1 to 1 nM; that for `CNC(=O)c1ccc(-c2cnc3ncc(Cc4ccc5ncccc5c4)n3n2)cn1` [Formula IV, N-methyl-5-[7-(quinolin-6-ylmethyl)imidazo[1,2-b][1,2,4]triazin-2-yl]pyridine-2-carboxamide], 0.1 to 1 nM; that for `CNC(=O)c1ccc(-c2cnc3ncc(Cc4ccc5ncccc5c4)n3n2)cc1C` [Formula V, N,2-dimethyl-4-[7-(quinolin-6-ylmethyl)imidazo[1,2-b][1,2,4]triazin-2-yl]benzamide], 0.1 to 1 nM.
The result for `Cc1nc([C@H](C)NC(=O)c2ccc(-c3cnc4ncc(Cc5ccc6ncccc6c5)n4n3)cc2Cl)no1` [Formula III, 2-chloro-N-[(1S)-1-(5-methyl-1,2,4-oxadiazol-3-yl)ethyl]-4-[7-(quinolin-6-ylmethyl)imidazo[1,2-b][1,2,4]triazin-2-yl]benzamide] reads 0.1 to 1 nM.

The term IC50 denotes the concentration that inhibits the measured activity by half. Lower therefore signals greater potency.

The record behind these values is patent publication US8487096B2, “Imidazo[1,2-B][1,2,4]triazines as C-MET inhibitors” (Incyte Corporation, priority 2010, dated 2013).
